Like-named read-outs stand apart in the source and are kept apart here.
Columns and labels:
[1] = Dissolution Test 2: release of active ingredients from sports-gel style mouthwash (protocol 1B) under simulated mastication, QTOF-UHPLC; format: physicochemical; details: for release profile from sports-gel style mouthwash: 10 g mouthwash of protocol 1B in 100 mL stirred water at 37° C., samples 10-600 s, FIGS. 7-11; for relative release profile, order of release: protocol 1B mouthwash, peak-normalised plots, FIG. 12
Procedure: A sports-gel style mouthwash was prepared according to protocol 1B described above. In order to measure the release of the active ingredients from the mouthwash, it was necessary to recreate the mastication conditions of the mouth. The following protocol was employed for this purpose: • i. Whilst stirring with a 3.5 cm magnetic stirrer set at the “7” rotation setting, heat 100 mL of water to 37° C. in a beaker. • ii. Aspirate 1 mL of solution using a pipette to obtain a standard sample. • iii. Add 10 g of the sports-gel style mouthwash prepared according to protocol 1B to the heated water. • Aspirate 1 mL of the resultant solution at time intervals of t=10, 20, 40, 60, 90, 120, 150, 180, 210, 240, 270, 300, 360 and 600 seconds, ensuring that the samples are taken from the outermost rim of the beaker.
Prior to mass spectrometry analysis, the samples and standards obtained were diluted 1 part in 10 in acetonitrile (ACN). All concentrations given below for the calibration are of these diluted solutions.
All samples and calibration standards were injected in the following order: triplicate injections of full calibration standards from low to high concentration, triplicate injection of acetonitrile blank, triplicate injection of sample series B in timeline sequence (each with a single blank in between), single injection of full calibration standards from low to high concentration, triplicate injection of blank acetonitrile, triplicate injection of sample series B in timeline sequence (each with a single blank in between). The reason for the second, shorter, series of calibration standards was to determine if there was any significant decrease in sensitivity (indicated by decrease in peak area) during the batch.
The QTOF-UHPLC analysis was conducted using a MaXis HD quadrupole electrospray time-of-flight (ESI-QTOF) mass spectrometer (Bruker Daltonik GmbH, Bremen, Germany) operated in ESI positive-ion MS mode. The QTOF was coupled to an Ultimate 3000 UHPLC (Thermo Fisher Scientific, California, USA). The capillary voltage was set to 4500 V, nebulising gas at 2 bar, drying gas at 10 L/min at 200° C. The TOF scan range was from 50-750 mass-to-charge ratio (m/z). For effective transmission of ions the ion energy was set to 1.0 eV with the collision energy for TOF MS acquisition at 2.0 eV. Liquid chromatography was performed using a Kinetex […], 2.1×100 mm HILIC column (Phenomenex) with a flow rate of 0.4 mL/min at 30° C. and an injection volume of 10 μL. Mobile phases A and B consisted of 50:50 ACN:H2O with 0.2% v/v formic acid and 10 mM ammonium formate, and 95:5 ACN:H2O with 0.2% v/v formic acid and 10 mM ammonium formate, respectively. Gradient elution was carried out with 100% mobile phase B until 2 min followed by a linear gradient to 0% B at 12 mins, keeping 0% B up until 15 mins, thereafter returned to 100% B until in 20 mins total run time. The MS instrument was calibrated using a range of sodium formate clusters introduced by 10 μL loop-injection prior to the chromatographic run. The mass calibrant solution consisted of 3 parts of 1 M NaOH to 97 parts of 50:50 water:isopropanol with 0.2% formic acid. The observed mass and isotope pattern perfectly matched the corresponding theoretical values as calculated from the expected elemental formula. Most of the target compounds were detected as [M+H]^+ and [M+Na]^+ ions. Data processing was performed using the Data Analysis software version 4.3 (Bruker Daltonik GmbH, Bremen, Germany). Quantification was carried out using the peak area in the extracted ion chromatogram (EIC) of the sum of the protonated and sodiated ion of the target compound.
Using the mass spectrometry data obtained, it is possible evaluate the release profiles of the active ingredients present in the sports-gel style mouthwash under simulated mastication conditions.

rat = details: cited from earlier work

Compound	release profile from sports-gel style mouthwash [1]	relative release profile, order of release [1]	LD50 rat (rat; in vivo)	LD50 rat (rat)
Sorbitan monolaurate	fast release	the next active ingredient to reach an effective concentration	–	–
CC1CCC(C(C)C)C(O)C1 (centres unmarked) [Menthol]	–	–	3,300 mg/kg	–
CC12CCC(CC1)C(C)(C)O2 [Eucalyptol]	reaches its maximum concentration significantly later than, for example, the glycerol or sorbitan monolaurate	follow the release of the surfactant	–	–
O [Water]	–	–	–	90,000 mg/kg
OCC(O)CO [Glycerine, glycerol]	immediately releases into the surrounding solution and reaches its effective concentration within seconds	released immediately upon commencing mastication	12,600 mg/kg	–
Cc1ccc(C(C)C)c(O)c1 [Thymol]	reaches its maximum concentration at a later stage of mastication	–	–	–
O=[N+]([O-])[O-].[K+] [Potassium nitrate]	–	–	–	3,750 mg/kg
OC[C@@H](O)[C@H](O)[C@@H](O)CO [Xylitol]	released quickly	follow the release of the surfactant	16,500 mg/kg	–

From patent US11219580B2, “Oral composition” (Andalay Technologies Limited, priority 2016, dated 2022)
